Source: patent publication US8003658B2, “Quinazoline derivatives for inhibiting cancer cell growth and method for the preparation thereof” (Hanmi Holdings Co., Ltd., priority 2004, dated 2011)
Like-named read-outs stand apart in the source and are kept apart here.

Legend:
A431 (ATCC: CRL-1555) = test: Test of cancer cell growth inhibition (SRB), A431; conditions: read-out: IC50 A431
SK-Br3 (ATCC: HTB-30) = test: Test of cancer cell growth inhibition (SRB), SK-Br3; conditions: read-out: IC50 SK-Br-3
SW-620 (ATCC: CCL-227) = test: Test of cancer cell growth inhibition (SRB), SW-620; conditions: read-out: IC50 SW-620
[1] = EGFR overexpressed A431, 72 hours, SRB
[2] = Erb-B2 overexpressed SK-Br3, 72 hours, SRB
[3] = SW-620 not having overexpressed EGFR and Erb-B2, 72 hours, SRB

IC50 (A431 (ATCC: CRL-1555); Homo sapiens, A-431, 72 h) [µM] | IC50 (SK-Br3 (ATCC: HTB-30); Homo sapiens, SK-BR-3, 72 h) [µM] | IC50 (SW-620 (ATCC: CCL-227); Homo sapiens, SW-620, 72 h) [µM] | IC50 (A431 (ATCC: CRL-1555); [1]) [µM] | IC50 (SK-Br3 (ATCC: HTB-30); [2]) [µM] | IC50 (SW-620 (ATCC: CCL-227); [3]) [µM] | Structure (SMILES)
0.482 | 0.045 | > 10 |  |  |  | COCC(=O)NCC(OC(C)=O)C(=O)Nc1ccc2ncnc(Nc3ccc(OCc4cccc(F)c4)c(Cl)c3)c2c1 (stereo not shown) [Example 39-2, acetic acid 1-{4-[3-chloro-4-(3-fluoro-benzyloxy)-phenylamino]-quinazolin-6-ylcarbamoyl}-2-(2-methoxy-acetylamino)-ethylester]
0.117 | 0.038 | > 10 |  |  |  | COCC(=O)NCCCCC(=O)Nc1ccc2ncnc(Nc3ccc(OCc4cccc(F)c4)c(Cl)c3)c2c1 [Example 115-2, 5-(2-methoxy-acetylamino)-pentanoic acid {4-[3-chloro-4-(3-fluoro-benzyloxy)-phenylamino]-quinazolin-6-yl}-amide]
0.095 | 0.035 | > 10 |  |  |  | COCC(=O)NCCCC(=O)Nc1ccc2ncnc(Nc3ccc(OCc4cccc(F)c4)c(Cl)c3)c2c1 [Example 87-2, N-{4-[3-chloro-4-(3-fluoro-benzyloxy)-phenylamino]-quinazolin-6-yl}-4-(2-methoxy-acetylamino)-butyramide]
0.315 | 0.106 | > 10 |  |  |  | COCC(=O)N[C@@H](Cc1ccccc1)C(=O)Nc1ccc2ncnc(Nc3ccc(OCc4cccc(F)c4)c(Cl)c3)c2c1 [Example 5-3, (2S)—N-{4-[3-chloro-4-(3-fluoro-benzyloxy)-phenylamino]-quinazolin-6-yl}-2-(2-methoxy-acetylamino)-3-phenyl-propionamide]
0.012 | 0.003 | > 10 |  |  |  | C=CC(=O)NCCC(=O)Nc1cc2c(Nc3ccc(OCc4cccc(F)c4)c(Cl)c3)ncnc2cc1OCCCN1CCOCC1 [Example 85-2, N-{2-[4-[3-chloro-4-(3-fluoro-benzyloxy)phenylamino]-7-(3-morpholin-4-yl-propoxy)-quinazolin-6-ylcarbamoyl]-ethyl}-acrylamide]
1.33 | 0.804 |  |  |  |  | C=CC(=O)NCCC(=O)N(CCCN(C)C)c1ccc2ncnc(Nc3ccc(OCc4cccc(F)c4)c(Cl)c3)c2c1 [Example 141-4, N-{2-[{4-[3-chloro-4-(3-fluoro-benzyloxy)-phenylamino]-quinazolin-6-yl}-(3-dimethylamino-propyl)-carbamoyl]-ethyl}-acrylamide]
0.408 | 0.359 |  |  |  |  | CC(C)(C)OC(=O)NCC(=O)Nc1ccc2ncnc(Nc3ccc(OCc4cccc(F)c4)c(Cl)c3)c2c1 [Example 1-5, ({4-[3-chloro-4-(3-fluoro-benzyloxy)-phenylamino]-quinazolin-6-ylcarbamoyl}-methyl)-carbamic acid t-butylester]

More lines, now with the values behind:

Structure (SMILES) | IC50 (A431 (ATCC: CRL-1555); Homo sapiens, A-431, 72 h) [µM] | IC50 (SK-Br3 (ATCC: HTB-30); Homo sapiens, SK-BR-3, 72 h) [µM] | IC50 (SW-620 (ATCC: CCL-227); Homo sapiens, SW-620, 72 h) [µM] | IC50 (A431 (ATCC: CRL-1555); [1]) [µM] | IC50 (SK-Br3 (ATCC: HTB-30); [2]) [µM] | IC50 (SW-620 (ATCC: CCL-227); [3]) [µM]
CN(C)CC(=O)NCCCC(=O)Nc1ccc2ncnc(Nc3ccc(OCc4cccc(F)c4)c(Cl)c3)c2c1 [Example 104, N-{4-[3-chloro-4-(3-fluoro-benzyloxy)-phenylamino]-quinazolin-6-yl}-4-(2-dimethylamino-acetylamino)-butyramide] | 0.254 | 0.022 | > 10 |  |  | 
CS(=O)(=O)CC(=O)NCCC(=O)Nc1ccc2ncnc(Nc3ccc(OCc4cccc(F)c4)c(Cl)c3)c2c1 [Example 21, N-{4-[3-chloro-4-(3-fluoro-benzyloxy)-phenylamino]-quinazolin-6-yl}-3-(2-methanesulfonyl-acetylamino)-propionamide] | 0.455 | 0.016 | > 10 |  |  | 
CC#CC(=O)NCCC(=O)Nc1ccc2ncnc(Nc3ccc(OCc4cccc(F)c4)c(Cl)c3)c2c1 [Example 27, but-2-ynoylic acid(2-{4-[3-chloro-4-(3-fluoro-benzyloxy)-phenylamino]-quinazolin-6-ylcarbamoyl}-ethyl)-amide] |  |  |  | 0.085 | 0.01 | > 10
C=CC(=O)NCCCC(=O)Nc1ccc2ncnc(Nc3ccc(OCc4cccc(F)c4)c(Cl)c3)c2c1 [Example 89, 4-acryloylamino-N-{4-[3-chloro-4-(3-fluoro-benzyloxy)-phenylamino]-quinazolin-6-yl}-butyramide] | 0.173 | 0.019 | > 10 |  |  | 
CC=CC(=O)NCCC(=O)Nc1ccc2ncnc(Nc3ccc(OCc4cccc(F)c4)c(Cl)c3)c2c1 [Example 28, but-2-enonylic acid (2-{4-[3-chloro-4-(3-fluoro-benzyloxy)-phenylamino]-quinazolin-6-ylcarbamoyl}-ethyl)-amide] |  |  |  | 0.197 | 0.065 | > 10
CC=CC=CC(=O)NCCC(=O)Nc1ccc2ncnc(Nc3ccc(OCc4cccc(F)c4)c(Cl)c3)c2c1 [Example 24, hexa-2,4-dienonylic acid (2-{4-[3-chloro-4-(3-fluoro-benzyloxy)-phenylamino]-quinazolin-6-ylcarbamoyl}-ethyl)-amide] |  |  |  | 0.232 | 0.105 | > 10
C#Cc1cccc(Nc2ncnc3cc(OCCOC)c(OCCOC)cc23)c1 [Tarceva, reference compound] | 0.059 | 0.891 | > 10 |  |  | 
O=C(CCl)NCCC(=O)Nc1ccc2ncnc(Nc3ccc(OCc4cccc(F)c4)c(Cl)c3)c2c1 [Example 61, 3-(2-chloro-acetylamide)-N-{4-[3-chloro-4-(3-fluoro-benzyloxy)-phenylamino]-quinazolin-6-yl}-propionamide] |  |  |  | 0.168 | 0.098 | > 10
C=CC(=O)NCCC(=O)Nc1ccc2ncnc(Nc3ccc(F)c(Cl)c3)c2c1 [Example 54, N-{2-[4-(3-chloro-4-fluoro-phenylamino)-quinazolin-6-ylcarbamoyl]-ethyl}-acrylamide] | 0.321 | 0.046 | > 10 |  |  | 
C=CC(=O)NCCC(=O)Nc1ccc2ncnc(Nc3cncn3Cc3ccccc3)c2c1 [Example 79, N-{2-[4-(1-benzyl-1H-imidazol-5-ylamino)-quinazolin-6-ylcarbamoyl]-ethyl}-acrylamide] | 0.065 | 0.003 | > 10 |  |  | 
C=CC(=O)N[C@@H](CCSC)C(=O)Nc1ccc2ncnc(Nc3ccc(OCc4cccc(F)c4)c(Cl)c3)c2c1 [Example 9, (2S)-2-acryloylamino-N-{4-[3-chloro-4-(3-fluoro-benzyloxy)-phenylamino]-quinazolin-6-yl}-4-methanesulfanyl-butyramide] |  |  |  | 0.06 | 0.007 | > 10
C=CC(=O)NCC(C)C(=O)Nc1ccc2ncnc(Nc3ccc(OCc4cccc(F)c4)c(Cl)c3)c2c1 (stereo not shown) [Example 44, N-(2-{4-[3-chloro-4-(3-fluoro-benzyloxy)-phenylamino]-quinazolin-6-ylcarbamoyl}-propyl)-acrylamide] | 0.043 | 0.006 | > 10 |  |  | 
N#CCC(=O)NCCCC(=O)Nc1ccc2ncnc(Nc3ccc(OCc4cccc(F)c4)c(Cl)c3)c2c1 [Example 93, N-{4-[3-chloro-4-(3-fluoro-benzyloxy)-phenylamino]-quinazolin-6-yl}-4-(2-cyano-acetylamino)-butyramide] | 0.324 | 0.033 | > 10 |  |  | 
C=C(C)C(=O)NCCC(=O)Nc1ccc2ncnc(Nc3ccc(OCc4cccc(F)c4)c(Cl)c3)c2c1 [Example 30, N-(2-{4-[3-chloro-4-(3-fluoro-benzyloxy)-phenylamino]-quinazolin-6-ylcarbamoyl}-ethyl)-2-methyl-acrylamide] | 0.119 | 0.038 | > 10 |  |  | 
COc1cc2ncnc(Nc3ccc(OCc4ccccn4)c(Cl)c3)c2cc1NC(=O)[C@@H]1CCCN1C(=O)C=CCN(C)C [Example 175, (2S)-1-(4-dimethylamino-buten-2-oyl)-pyrrolidine-2-carboxylic acid {4-[3-chloro-4-(pyridin-2-ylmethoxy)-phenylamino]-7-methoxy-quinazolin-6-yl}-amide] |  |  |  | 0.048 | 0.026 | 
C=CC(=O)NCCCC(=O)Nc1ccc2ncnc(Nc3ccc(F)c(Cl)c3)c2c1 [Example 98, 4-acryloylamino-N-[4-(3-chloro-4-fluoro-phenylamino)-quinazolin-6-yl]-butyramide] | 0.079 | 0.184 |  |  |  | 
C=CC(=O)N1CCC[C@H]1C(=O)Nc1cc2c(Nc3ccc(OCc4ccccn4)c(C)c3)ncnc2cc1OC [Example 168, (2S)-1-acryloyl-pyrrolidine-2-carboxylic acid {7-methoxy-4-[3-methyl-4-(pyridin-2-ylmethoxy)-phenylamino]-quinazolin-6-yl}-amide] | 0.068 | 0.006 |  |  |  | 
C=CC(=O)N[C@@H](C)CC(=O)Nc1cc2c(Nc3ccc(OCc4ccccn4)c(Cl)c3)ncnc2cc1OC [Example 212, (3S)-3-acryloylamino-N-{4-[3-chloro-4-(pyridin-2-ylmethoxy)-phenylamino]-7-methoxy-quinazolin-6-yl}-butyramide] | 0.098 | 0.009 |  |  |  | 
O=C(CCNC(=O)C(F)(F)F)Nc1ccc2ncnc(Nc3ccc(OCc4cccc(F)c4)c(Cl)c3)c2c1 [Example 119, N-{4-[3-chloro-4-(3-fluoro-benzyloxy)-phenylamino]-quinazolin-6-yl}-3-(2,2,2-trifluoro-acetylamino)-propionamide] | 0.161 | 0.069 |  |  |  | 
C=CC(=O)N1CCC[C@H]1C(=O)Nc1cc2c(Nc3ccc(OCc4ccccn4)c(C)c3)ncnc2cc1F [Example 177, (2S)-1-acryloyl-pyrrolidine-2-carboxylic acid {7-fluoro-4-[3-methyl-4-(pyridin-2-ylmethoxy)-phenylamino]-quinazolin-6-yl}-amide] | 0.078 | 0.009 |  |  |  | 
